# Measured values taken from patent publication US6518304B1, “Fungicidal composition” (Sumitomo Chemical Company, Limited, priority 1993, dated 2003).
# Like-named read-outs stand apart in the source and are kept apart here.
# Experiments:
# [1] = tested on: tomato late blight fungus (Phytophthora infestans); format: in vivo; conditions: 10 ppm; tomato plant, 1 week at 24° C.
# [2] = tested on: grape downy mildew fungus (Plasmopara viticola); experiment: Test Example 2: grape downy mildew, spray then inoculation, infection rate; format: in vivo; conditions: 10 ppm; grape plant, 1 week at 24° C.
# From the text: A grape plant (cultivar: Berry A) was planted in each pot and was sprayed with a sufficient volume of a dilution with a predetermined concentration of a wettable powder obtained according to Formulation Example 5, after the plant put out a fourth leaf.
# [3] = tested on: tomato late blight fungus; format: in vivo, Phytophthora infestans; conditions: 10 ppm; tomato seedling
# apple scab fungus [4] = experiment: Test Example 8: apple scab, foliage application then inoculation; format: in vivo, Venturia inaequalis; conditions: 0.5 ppm; apple seedling
# [5] = tested on: tomato late blight fungus; format: in vivo, Phytophthora infestans; conditions: 5 ppm; tomato seedling
# apple scab fungus [6] = experiment: Test Example 13: apple scab, foliage application then inoculation; format: in vivo, Venturia inaequalis; conditions: 0.5 ppm; apple seedling
# [7] = tested on: grape powdery mildew fungus (Uncinula necator); experiment: Test Example 14: grape powdery mildew, spray then inoculation; format: in vivo; conditions: 1 ppm; grape plant, 3 weeks at 24° C.
# [8] = tested on: tomato late blight fungus (Phytophthora infestans); format: in vivo; conditions: 10 ppm; tomato plant, 1 week at 24° C.; remark: listed apart in the source
# [9] = tested on: grape powdery mildew fungus (Uncinula necator); experiment: Test Example 16: grape powdery mildew, spray then inoculation; format: in vivo; conditions: 10 ppm; grape plant, 3 weeks at 24° C.
# [10] = tested on: gray mold fungi sensitive to benzimidazole type fungicidal compounds; experiment: Test Example 12: cucumber gray mold, benzimidazole-sensitive fungus; conditions: 20 ppm; cucumber seedling
# Protocol: Each of plastic pots was filled with sandy loam and sown with cucumber (Sagamihanjiro), followed by growing in a greenhouse for 14 days. A wettable powder of test agents prepared according to Formulation Example 41 was diluted to a predetermined concentration with water, and foliage application of the dilution was carried out so as to adhere the dilution sufficiently to the surfaces of leaves of the grown cucumber young seedling. After air-drying, each of gray mold fungi sensitive and tolerant, respectively, to benzimidazole type fungicidal compounds was inoculated on the surfaces of leaves of the young seedling, and the young seedling was grown in the dark at 10° C. and a high humidity for 4 days, after which the infection rate (%) was investigated.
# [11] = tested on: gray mold fungi sensitive to benzimidazole type fungicidal compounds; experiment: Test Example 17: cucumber gray mold, benzimidazole-sensitive fungus; conditions: 20 ppm; cucumber seedling
# Protocol: (§1) Each of plastic pots was filled with sandy loam and sown with cucumber (Sagamihanjiro), followed by growing in a greenhouse for 14 days. A wettable powder of test agents prepared according to Formulation Example 59 was diluted to a predetermined concentration with water, and foliage application of the dilution was carried out so as to adhere the dilution sufficiently to the surfaces of leaves of the grown cucumber young seedling. After air-drying, each of gray mold fungi sensitive and tolerant, respectively, to benzimidazole type fungicidal compounds was inoculated on the surfaces of leaves of the young seedling, and the young seedling was grown in the dark at 10° C. and a high humidity for 4 days, after which the infection rate (%) was investigated.
# [12] = tested on: grape downy mildew fungus; experiment: Test Example 6: grape downy mildew, foliage application then inoculation; conditions: 1 ppm; grape seedling
# Protocol: (§2) Each of plastic pots was filled with sandy loam and sown with grape (Berry A), followed by growing in a greenhouse for 40 days. […] Then, the young seedling was inoculated with a suspension of zoosporangia of grape downy mildew fungus by spraying. After the inoculation, the young seedling was allowed to stand overnight at 23° C. and a high humidity and then grown in a greenhouse for 7 days, after which the infection rate (%) was investigated.
# [13] = tested on: grape downy mildew fungus; experiment: Test Example 7: grape downy mildew, foliage application then inoculation; conditions: 2 ppm; grape seedling
# Protocol: as §2
# [14] = tested on: grape downy mildew fungus; experiment: Test Example 9: grape downy mildew, foliage application then inoculation; conditions: 10 ppm; grape seedling
# Protocol: as §2
# gray mold fungus [15] = experiment: Test Example 4: cucumber gray mold, foliage application after inoculation; conditions: 20 ppm; cucumber seedling, applied after inoculation
# Protocol: Each of plastic pots was filled with sandy loam and sown with cucumber (Sagamihanjiro), followed by growing in a greenhouse for 14 days. Gray mold fungus was inoculated on the surfaces of leaves of the grown cucumber young seedling, and the young seedling was grown in the dark at 10° C. and a high humidity for 2 days and then at a temperature of 23° C. for 3 days. A wettable powder of test agents prepared according to Formulation Example 11 was diluted to a predetermined concentration with water, and foliage application of the dilution was carried out so as to adhere the dilution sufficiently to the surfaces of leaves of the cucumber young seedling. After the spraying, the young seedling was grown in the dark at 10° C. and a high humidity for 3 days, and then the infection rate (%) was investigated.
# gray mold fungus [16] = experiment: Test Example 3: cucumber gray mold, foliage application before inoculation; conditions: 20 ppm; cucumber seedling, applied before inoculation, 4 days
# Protocol: Each of plastic pots was filled with sandy loam and sown with cucumber (Sagamihanjiro), followed by growing in a greenhouse for 14 days. A wettable powder of test agents prepared according to Formulation Example 11 was diluted to a predetermined concentration with water, and foliage application of the dilution was carried out so as to adhere the dilution sufficiently to the surfaces of leaves of the grown cucumber young seedling. After air-drying, gray mold fungus was inoculated on the surfaces of leaves of the young seedling, and the young seedling was grown in the dark at 10° C. and a high humidity for 4 days, after which the infection rate (%) was investigated.
# gray mold fungus [17] = experiment: Test Example 11: cucumber gray mold, foliage application before inoculation; conditions: 20 ppm; cucumber seedling
# Protocol: Each of plastic pots was filled with sandy loam and sown with cucumber (Sagamihanjiro), followed by growing in a greenhouse for 14 days. A wettable powder of test agents prepared according to Formulation Example 35 was diluted to a predetermined concentration with water, and foliage application of the dilution was carried out so as to adhere the dilution sufficiently to the surfaces of leaves of the grown cucumber young seedling. After air-drying, gray mold fungus was inoculated on the surfaces of leaves of the young seedling, and the young seedling was grown in the dark at 10° C. and a high humidity for 4 days, after which the infection rate (%) was investigated.
# [18] = tested on: gray mold fungi tolerant to benzimidazole type fungicidal compounds; experiment: Test Example 12: cucumber gray mold, benzimidazole-tolerant (resistant) fungus; conditions: 20 ppm; cucumber seedling
# Protocol: Each of plastic pots was filled with sandy loam and sown with cucumber (Sagamihanjiro), followed by growing in a greenhouse for 14 days. […] After air-drying, each of gray mold fungi sensitive and tolerant, respectively, to benzimidazole type fungicidal compounds was inoculated on the surfaces of leaves of the young seedling, and the young seedling was grown in the dark at 10° C. and a high humidity for 4 days, after which the infection rate (%) was investigated.
# [19] = tested on: gray mold fungi tolerant to benzimidazole type fungicidal compounds; experiment: Test Example 17: cucumber gray mold, benzimidazole-tolerant (resistant) fungus; conditions: 20 ppm; cucumber seedling
# Protocol: as §1
compound,measurement,setting,value
"CNC(=O)C(=NOC)c1ccccc1COc1cc(C)ccc1C [Compound (Ie), N-methyl-α-methoxyimino-2-[(2,5-dimethylphenoxy)methyl]phenylacetamide]",Infection rate (%),[1],25%
same,Infection rate (%),[2],25%
same,Infection rate (%),[3],20%
same,Infection rate (%),apple scab fungus [4],20%
same,Infection rate (%),[5],25%
same,Infection rate (%),apple scab fungus [6],20%
same,Infection rate (%),[7],25%
same,Infection rate (%),[8],25%
same,Infection rate (%),[9],25%
same,Infection rate (%) Sensitive fungus,[10],25%
same,Infection rate (%) Sensitive fungus,[11],25%
same,Infection rate (%),[12],25%
same,Infection rate (%),[13],20%
same,Infection rate (%),[14],25%
same,Infection rate (%),gray mold fungus [15],25%
same,Infection rate (%),gray mold fungus [16],25%
same,Infection rate (%),gray mold fungus [17],25%
same,Infection rate (%) Resistant fungus,[18],25%
same,Infection rate (%) Resistant fungus,[19],25%
